From US20130165368A1, “ANTIMICROBIAL COMPOUNDS” (priority 2010, published 2013) come the findings set out here.

The test system of this assay is MRSA NCTC 11939. The assay is described as follows: Synergy testing: disc susceptibility, zone of inhibition on agar containing Laureth derivative. The assay is classed as cell-based, Staphylococcus aureus. The protocol: There now follows data relating to a screen for synergistic interaction between Laureth derivatives [C12E1 to C12E8] and 12 conventional anti-staphylococcal agents.
Ethoxylated Lauryl Alcohol Derivative Preparation As plates containing quarter strength of the MIC of NCTC 11939 are needed, and therefore very small weights of each compound, they were prepared at twenty time strength in 20 mL volumes in plastic universals. Once prepared these solutions were diluted […] by adding 1 mL to 1 mL SDW, resulting a 2 mL volume at ten times strength. This was undertaken in duplicate to create two identical plates.
IST was prepared as previously stated in above. 18 mL agar was added to each universal and then poured into sterile Petri dishes. Control plates were prepared as stated above
A 0.5 McFarland suspension of MRSA NCTC 11939 was prepared using SDW. This was then adjusted to a concentration of 1.5×107 by adding 200 μL to 1.8 mL of SDW. Once diluted, a sterile cotton swab was used to spread the suspension evenly across the entire surface of each agar plate.
Twelve antibiotics discs were added to the plates, 6 per plate in a circle. The plates were then incubated aerobically at 37° C.
The diameter of the zones of clearance were measured and recorded in millimetres. The zones for each compound were compared to the control and to BSAC breakpoints.
A variation of zone size within 2 mm is within acceptable limits of assay reproducibility.

Where [1] appears, read: antibiotic disc in the presence of L1 [C12E1] 0.005 mmol/L.
Where [2] appears, read: antibiotic disc in the presence of L2 [C12E2] 0.0275 mmol/L.
The mark [3] stands for this setting: antibiotic disc in the presence of L3 [C12E3] 0.01375 mmol/L.
[4] abbreviates: antibiotic disc in the presence of L4 [C12E4] 0.0275 mmol/L.
Where [5] appears, read: antibiotic disc in the presence of L5 [C12E5] 0.0275 mmol/L.
The mark [6] stands for this setting: antibiotic disc in the presence of L6 [C12E6] 0.0275 mmol/L.
The mark [7] stands for this setting: antibiotic disc in the presence of L7 [C12E7] 0.0275 mmol/L.
[8] abbreviates: antibiotic disc in the presence of L8 [C12E8] 0.055 mmol/L.
[9] abbreviates: antibiotic disc, Control, 0 mmol/L Laureth derivative.

`CCC[C@@H]1C[C@@H](C(=O)N[C@@H]([C@H]2O[C@H](SC)[C@H](O)[C@@H](O)[C@H]2O)[C@H](C)Cl)N(C)C1` [Clindamycin]: the “Zone of Inhibition” value under setting [1] stood at 33 mm; the “Zone of Inhibition” value under setting [2] is 32 mm; the “Zone of Inhibition” value under setting [3] was 32 mm; the “Zone of Inhibition” value under setting [4] is given as 34 mm; the “Zone of Inhibition” value under setting [5] came to 33 mm; the “Zone of Inhibition” value under setting [6] was determined as 33 mm. Further, the “Zone of Inhibition” value reads like this: under setting [7], 34 mm; under setting [8], 35 mm.
As to Gentamicin, the “Zone of Inhibition” value is, setting by setting: under setting [1], 27 mm; under setting [2], 27 mm; under setting [3], 27 mm; under setting [4], 29 mm; under setting [5], 28 mm; under setting [6], 30 mm. For the same compound, the “Zone of Inhibition” value came to 30 mm under setting [7], 33 mm under setting [8] and 28 mm under setting [9].
In the case of `CO[C@H]1/C=C/O[C@@]2(C)Oc3c(C)c(O)c4c(O)c(c(/C=N/N5CCN(C)CC5)c(O)c4c3C2=O)NC(=O)/C(C)=C\C=C\[C@H](C)[C@H](O)[C@@H](C)[C@@H](O)[C@@H](C)[C@H](OC(C)=O)[C@@H]1C` [Rifampicin], the “Zone of Inhibition” value is, setting by setting: under setting [1], 37 mm; under setting [2], 37 mm; under setting [3], 37 mm; under setting [4], 40 mm; under setting [5], 39 mm; under setting [6], 40 mm. The “Zone of Inhibition” value under setting [7] was found to be 39 mm.
`C/C(=C\C(=O)OCCCCCCCCC(=O)O)C[C@@H]1OC[C@H](C[C@@H]2O[C@H]2[C@@H](C)[C@H](C)O)[C@@H](O)[C@H]1O` [Muprocin]: the “Zone of Inhibition” value came out at 32 mm under setting [1]; 33 mm under setting [2]; 32 mm under setting [3]; 34 mm under setting [4]; 32 mm under setting [5]; 33 mm under setting [6]. Further, the “Zone of Inhibition” value runs as follows: under setting [7], 34 mm; under setting [8], 35 mm; under setting [9], 33 mm.
Regarding `CN[C@H](CC(C)C)C(=O)N[C@H]1C(=O)N[C@@H](CC(N)=O)C(=O)N[C@H]2C(=O)N[C@H]3C(=O)N[C@H](C(=O)N[C@H](C(=O)O)c4cc(O)cc(O)c4-c4cc3ccc4O)[C@H](O)c3ccc(c(Cl)c3)Oc3cc2cc(c3O[C@@H]2O[C@H](CO)[C@@H](O)[C@H](O)[C@H]2O[C@H]2C[C@](C)(N)[C@H](O)[C@H](C)O2)Oc2ccc(cc2Cl)[C@H]1O` [Vancomycin], the “Zone of Inhibition” value was determined as 21 mm under setting [1]; 21 mm under setting [2]; 19 mm under setting [3]; 21 mm under setting [4]; 20 mm under setting [5]; 20 mm under setting [6]. Moreover, the “Zone of Inhibition” value is 20 mm under setting [7] and 23 mm under setting [8].
On to `CC(=O)O[C@H]1C[C@@]2(C)[C@@H](C[C@@H](O)[C@H]3[C@@]4(C)CC[C@@H](O)[C@@H](C)[C@@H]4CC[C@@]32C)/C1=C(\CCC=C(C)C)C(=O)O` [Fusidic Acid], for which the “Zone of Inhibition” value runs as follows: under setting [1], 36 mm; under setting [2], 37 mm; under setting [3], 35 mm; under setting [4], 38 mm; under setting [5], 37 mm; under setting [6], 39 mm. Besides, the “Zone of Inhibition” value under setting [7] is reported as 37 mm.
For `COc1cc(Cc2cnc(N)nc2N)cc(OC)c1OC` [Trimethoprim], the “Zone of Inhibition” value under setting [1] turned out to be 29 mm; the “Zone of Inhibition” value under setting [2] amounted to 30 mm; the “Zone of Inhibition” value under setting [3] was determined as 28 mm; the “Zone of Inhibition” value under setting [4] is reported as 31 mm; the “Zone of Inhibition” value under setting [5] is reported as 30 mm; the “Zone of Inhibition” value under setting [6] is given as 31 mm. In addition, under setting [7], the “Zone of Inhibition” value came out at 30 mm.
Turning to `COc1c(N2C[C@@H]3CCCN[C@@H]3C2)c(F)cc2c(=O)c(C(=O)O)cn(C3CC3)c12` [Moxyfloxacin], the “Zone of Inhibition” value reads like this: under setting [1], 14 mm; under setting [2], 14 mm; under setting [3], 16 mm; under setting [4], 14 mm; under setting [5], 13 mm; under setting [6], 14 mm. In addition, the “Zone of Inhibition” value reads like this: under setting [7], 18 mm; under setting [9], 15 mm.
Regarding `O=C(N[C@H](CO)[C@H](O)c1ccc([N+](=O)[O-])cc1)C(Cl)Cl` [Chloramphenicol], the “Zone of Inhibition” value is listed as 22 mm under setting [1]; 22 mm under setting [2]; 24 mm under setting [3]; 23 mm under setting [4]; 25 mm under setting [5]; 23 mm under setting [6]. The “Zone of Inhibition” value reads like this: under setting [7], 22 mm; under setting [8], 23 mm.
Take `CN(C)[C@@H]1C(O)=C(C(N)=O)C(=O)[C@@]2(O)C(O)=C3C(=O)c4c(O)cccc4[C@@](C)(O)[C@H]3C[C@@H]12` [Tetracycline]: the “Zone of Inhibition” value is, setting by setting: under setting [1], 34 mm; under setting [2], 35 mm; under setting [3], 35 mm; under setting [4], 36 mm; under setting [5], 32 mm; under setting [6], 35 mm. Besides, the “Zone of Inhibition” value under setting [7] is 36 mm.
Consider `CC[C@H]1OC(=O)[C@H](C)[C@@H](O[C@H]2C[C@@](C)(OC)[C@@H](O)[C@H](C)O2)[C@H](C)[C@@H](O[C@@H]2O[C@H](C)C[C@H](N(C)C)[C@H]2O)[C@](C)(O)C[C@@H](C)C(=O)[C@H](C)[C@@H](O)[C@]1(C)O` [Erythromycin], for which the “Zone of Inhibition” value was found to be 7 mm under setting [1]; 7 mm under setting [2]; 7 mm under setting [3]; 8 mm under setting [4]; 7 mm under setting [5]; 7 mm under setting [6]. Also, the “Zone of Inhibition” value is 7 mm under setting [7] and 8 mm under setting [8].
